Laboratory results from ChEMBL document CHEMBL1156351, “A new isoquinoline alkaloid from the marine sponge Haliclona species” (J Nat Prod, 2001).
≈ marks a conversion by molar mass, not a printed value. Calls of active or inactive are those of the source. The calls are words filed in the database; no cut-off is given here.

Tests used:
Assay type in all cases: functional, cell-based
LOX = experiment: Cytotoxicity against human LOX cells at 50 ug/mL after 2 days by XTT assay
OVCAR-3 [1] = experiment: Cytotoxicity against human OVCAR-3 cells at 50 ug/mL after 2 days by XTT assay
[2] = Cytotoxicity against human LOX cells after 2 days by XTT assay; details: 48 h
OVCAR-3 [3] = experiment: Cytotoxicity against human OVCAR-3 cells after 2 days by XTT assay; details: OVCAR-3, 48 h

Row | SMILES | Activity (LOX) | Activity (OVCAR-3 [1]) | IC50 [2] [µg/mL] | IC50 (OVCAR-3 [3]) [µg/mL]
1 | COc1cc2c(CO)nccc2cc1O | inactive | inactive |  | 
2 | COC1=C(C)C(=O)c2cc(=O)n(C)c(C)c2C1=O [MIMOSAMYCIN] |  |  | 10 (≈ 40.4 µM) | 10 (≈ 40.4 µM)
